Data reported in PubChem BioAssay AID624129 (Sanford-Burnham Center for Chemical Genomics, 2012).
The source made the active and inactive calls. The rule behind the calls is not given here.

Experiments:
Experiment in all cases: potency against CXCR6 with APJ panel – cell-based, beta-arrestin, DiscoveRx, uHTS hits, dose response (AID 624129)
[1] = biological target: Apelin receptor (Homo sapiens) (UniProt P35414); settings: CXCR6 beta-arrestin (DiscoveRx) antagonist cell assay, APJ
[2] = biological target: C-C chemokine receptor type 6 (Homo sapiens) (UniProt P51684); settings: CXCR6 beta-arrestin (DiscoveRx) antagonist cell assay
[3] = biological target: C-X-C chemokine receptor type 6 (Homo sapiens) (UniProt O00574); settings: CXCR6 beta-arrestin (DiscoveRx) antagonist cell assay
[4] = biological target: Beta-galactosidase (Escherichia coli) (UniProt Q8VNN2); settings: CXCR6 beta-arrestin (DiscoveRx) antagonist cell assay, b-galactosidase
[5] = dose range 1, mean IC50 across replicates
[6] = CCR6, dose range 1, mean IC50 across replicates
[7] = CXCR6, dose range 1, mean IC50 across replicates
[8] = CXCR6, run 1, dose range 2, at 80 µM (top of the series)

Sequence of Beta-galactosidase (Escherichia coli) (Q8VNN2 whole entry, looked up): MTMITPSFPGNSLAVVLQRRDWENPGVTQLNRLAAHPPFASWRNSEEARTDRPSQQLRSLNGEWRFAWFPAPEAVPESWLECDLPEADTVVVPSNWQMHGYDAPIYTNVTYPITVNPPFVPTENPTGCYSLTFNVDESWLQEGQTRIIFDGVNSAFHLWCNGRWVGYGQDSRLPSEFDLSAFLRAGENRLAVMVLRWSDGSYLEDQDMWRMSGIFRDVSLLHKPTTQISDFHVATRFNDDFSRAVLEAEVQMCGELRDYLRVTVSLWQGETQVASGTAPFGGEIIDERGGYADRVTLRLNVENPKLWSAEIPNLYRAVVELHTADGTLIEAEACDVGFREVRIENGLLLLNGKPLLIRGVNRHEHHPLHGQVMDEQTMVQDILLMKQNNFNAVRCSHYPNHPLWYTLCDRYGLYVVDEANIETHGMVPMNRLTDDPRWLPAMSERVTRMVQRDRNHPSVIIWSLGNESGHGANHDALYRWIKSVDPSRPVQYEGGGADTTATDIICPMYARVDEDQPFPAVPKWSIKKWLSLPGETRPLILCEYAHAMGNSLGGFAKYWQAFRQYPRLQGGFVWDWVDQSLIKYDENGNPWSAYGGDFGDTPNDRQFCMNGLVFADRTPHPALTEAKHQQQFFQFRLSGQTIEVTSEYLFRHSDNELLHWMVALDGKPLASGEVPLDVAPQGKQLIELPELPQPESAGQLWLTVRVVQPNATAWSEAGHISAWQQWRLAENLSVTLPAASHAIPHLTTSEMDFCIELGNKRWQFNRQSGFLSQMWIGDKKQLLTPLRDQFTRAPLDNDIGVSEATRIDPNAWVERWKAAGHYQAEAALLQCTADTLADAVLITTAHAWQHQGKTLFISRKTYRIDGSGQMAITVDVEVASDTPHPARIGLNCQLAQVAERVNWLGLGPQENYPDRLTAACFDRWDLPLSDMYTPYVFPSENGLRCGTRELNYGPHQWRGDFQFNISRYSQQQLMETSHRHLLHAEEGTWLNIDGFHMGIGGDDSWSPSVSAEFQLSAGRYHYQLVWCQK
Sequence of C-X-C chemokine receptor type 6 (Homo sapiens) (O00574 whole entry, looked up): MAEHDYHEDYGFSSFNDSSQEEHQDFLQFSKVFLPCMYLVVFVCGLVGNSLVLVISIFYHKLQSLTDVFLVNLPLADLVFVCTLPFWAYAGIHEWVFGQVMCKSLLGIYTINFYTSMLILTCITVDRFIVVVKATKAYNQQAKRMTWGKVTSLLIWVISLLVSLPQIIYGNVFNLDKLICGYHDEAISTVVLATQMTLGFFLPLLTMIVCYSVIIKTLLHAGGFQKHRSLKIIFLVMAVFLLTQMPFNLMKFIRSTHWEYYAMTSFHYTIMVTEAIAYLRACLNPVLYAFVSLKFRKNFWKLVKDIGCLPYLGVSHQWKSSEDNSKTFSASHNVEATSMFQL

SMILES	IC50 ([1]; dose range 1) [µM]	IC50 [1, 5] [µM]	IC50 ([1]; run 2, dose range 1) [µM]	IC50 ([1]; run 3, dose range 1) [µM]	IC50 ([2]; CCR6, dose range 1)	IC50 [2, 6] [µM]	IC50 ([2]; CCR6, run 2, dose range 1) [µM]	IC50 ([3]; CXCR6, dose range 1)	IC50 [3, 7] [µM]	inhibition [3, 8] [%]	IC50 ([3]; CXCR6, run 2, dose range 1) [µM]	IC50 ([4]; dose range 1)	IC50 [4, 5] [µM]	IC50 ([3]; CXCR6, run 1, dose range 2) [µM]	IC50 ([3]; CXCR6, run 2, dose range 2) [µM]	inhibition ([3]; CXCR6, run 1, dose range 2, at 20 µM (top of the series)) [%]
CNC(=O)c1nnsc1S(=O)(=O)c1ccc(Cl)cc1	14.3	15.7	16.1	16.5	10.5 µM	12	13.5	inactive	12.1	116	10.7	> 80 µM (inactive)	> 80	–	–	–
N#CC(C#N)=C1C=CC=CN1/C(=C\c1ccco1)C(=O)c1ccc(Cl)cc1	30.1	32.5	33.6	33.7	20.9 µM	18.7	16.4	inactive	28	125	25	15.1 µM	15.1	–	–	–
O=C(Nc1nccs1)c1sc2cc(Cl)ccc2c1Cl	48.2	46.8	45.4	> 80	9.63 µM	10.1	10.6	inactive	19	–	46.1	> 80 µM (inactive)	> 80	7.2	10.3	–
Cn1nc([N+](=O)[O-])nc1Sc1cccc2cccnc12	11	11.9	11.4	13.1	12.1 µM	13.7	15.2	inactive	12.5	–	14.2	> 80 µM (inactive)	> 80	11.3	9.55	–
O=c1oc2ccccc2c(Cl)c1CN1CCCCC1	13.2	17.9	21.6	18.9	5.59 µM	6.07	6.55	7.83 µM	7.76	125	7.68	25.6 µM	25.6	–	–	–
Cc1cccnc1Nc1nc(-c2ccccn2)cs1	1.2	1.38	1.82	1.13	0.955 µM	1.22	1.48	1.13 µM	0.904	–	0.861	> 80 µM (inactive)	> 80	0.837	0.788	–
O=C(Cn1sc2ccccc2c1=O)NC12CC3CC(CC(C3)C1)C2	2.02	3.22	5.54	2.1	1.54 µM	1.66	1.78	2.69 µM	2.42	70.8	2.16	> 80 µM (inactive)	> 80	–	–	–
Cc1ccc2oc(/N=C(\N)NC(=O)C(C)(C)C)nc2c1	19.8	20.9	19	23.9	11.2 µM	12.3	13.4	inactive	16.7	106	16	> 80 µM (inactive)	> 80	–	–	–
Cc1ccc(S(=O)(=O)c2ccc([N+](=O)[O-])o2)cc1	9.88	10.9	> 80	11.9	–	8.34	8.34	inactive	11.8	–	> 80	> 80 µM (inactive)	> 80	–	–	77.6
N#Cc1c(C#N)c(SSc2c(C#N)c(C#N)c(N)n2-c2ccccc2)n(-c2ccccc2)c1N	–	2.15	> 80	2.15	> 80 µM (inactive)	> 80	> 80	–	10.7	–	> 80	> 80 µM (inactive)	> 80	10.6	10.9	–
O=C(Nc1nnc(-c2cccs2)o1)c1cccc(C(F)(F)F)c1	–	> 80	> 80	> 80	–	> 80	> 80	> 80 µM (inactive)	> 80	-55.9	> 80	> 80 µM (inactive)	> 80	–	–	–
